Laboratory results: US10208028B1, “Methods of treating cancer” (Macau University of Science and Technology, priority 2017, dated 2019)

Tests used:
Cyclin D1 = assay: Western blot analysis, cyclin D1; format: cell-based; conditions: H358 cells, 3, 6, 9 μM, 24 hr
Protocol: (§1) The cell culture dish was placed in the ice and washed the cells with PBS. Then the PBS was removed to ensure that the cells were lysed in cell lysis buffer containing protease and phosphatase inhibitors. Adherent cells were scraped off from the plate and transferred the lysate into a new tube. The tube was maintained at a constant agitation for 15 min in the ice. Then the tubes were centrifuged at 4° C. 12000 g for 5 min. The supernatant was transferred into a new tube and 4× loading buffer was added to the supernatant. Each sample was boiled at 100° C. for 5 min. Equal amounts of protein (50 μg) were loaded into the wells of a SDS-PAGE gel, along with 3 μl markers. The gel was placed in transfer buffer in sandwich and was transferred to a nitrocellulose filter membrane. After transferring for 3 hr in an ice bucket at a constant current of 300 mA, the membranes were blocked in 5% non-fat milk in TBST at room temperature for 1 hr. The membrane was incubated overnight with the primary antibody solution, against the target protein at 4° C. The blot was rinsed 3 times within 5 min with TBST. The secondary antibody solution was incubated for 1 hr at room temperature. […]
(§2) To determine whether the induction of apoptosis in NSCLC cells was contributed by compound C620-0696-mediated growth inhibition, cleaved PARP1 in compound C620-0696 treated H358 cells was detected. […]

A549 cells [1] = assay: Wound healing assay; format: cell-based; conditions: 24 and 48 hours postinjury, versus control cells
Protocol: A549 cells were seeded onto 6 well plates. When the cell confluence reached about >90% and scratch wounds were made by scraping the cell layer across each plate using the tip of 200 μl pipette. Wounded cultures were incubated in medium for 48 hr, and then visualized by Olympus inverted microscopy to assess cell migration ability.
To evaluate the effect of C620-0696 on cell migration and cellular processes in NSCLC, the wound healing assay was employed to assess the directional cell motility in A549 cells.

A549 cells [2] = assay: MTT assay cell viability; format: cell-based; conditions: Homo sapiens, 72 hr treatment
Protocol: (§3) A549 and H358 cell lines were stored in liquid nitrogen. A549 and H358 cells were cultured by RPMI 1640 medium after recovery. RPMI 1640 medium supplemented with 10% fetal bovine serum and 100 units/mL penicillin and 100 μg/mL streptomycin. A549 and H358 cells were grown at 37° C. incubator with 5% CO2.
(§4) All compounds were dissolved in dimethyl sulfoxide (DMSO) and stored at −40° C. HCC78 cells were plated in 96-well micro-plate and plated 3000 cells/well. Then the 96-well micro-plate was put back in the incubator and overnight for cell adhesion. After cell adhesion, the medium was removed and each well was added with 100 μl drug-containing medium. There were three different concentrations for each drug and three duplicate wells for each concentration. Then cell adhesion was cultured overnight for 72 hr. After 72 hr, each well was added with 10 μl of MTT solution and the 96-well plate was put back in the incubator for 4 hr. Then 100 μl of the SDS solution (10% SDS and 0.1 mM HCL) was added to each well and incubated at 37° C. for 4 hr. Finally the absorbance of the plate was measured by an absorbance reader (Tecan, Morrisvill, N.C., USA).
(§5) FIG. 3B is a graph 302 showing the effect of compound C620-0696 on the cell viability of A549 cells. A549 cells were treated by different concentrations of compound C620-0696, i.e. 3, 6, 9 and 12 μM for 72 hr. […]

H358 cells = assay: MTT assay cell viability; format: cell-based; conditions: Homo sapiens, NCI-H358, 72 hr treatment
Protocol: as §3, §4, §5

A549 cells [3] = assay: Colony formation assay; format: cell-based; conditions: A549 cells, 0.5, 1, 1.5 μM, 7 days, versus control group
Protocol: Cell survival was assessed by colony formation as previously described. A549 cells were seeded to six-well plate (500-1000/well). Then cells were exposed to various doses of compound C620-0696. After 7 days, colonies were fixed with 4% paraformaldehyde for 15 minutes and stained with crystal violet for 10-15 minutes. Finally, the staining solution was slowly washed off with water and the cells were air dried.
To determine the effect of the compound C620-0696 on A549 cell growth behavior, a colony formation assay was performed. A549 cells were treated by different concentrations of compound C620-0696, i.e. 0 (control group), 0.5, 1, 1.5 μM.

bromodomain of BPTF = bromodomain of BPTF (Homo sapiens, UniProt Q12830); assay: Kinetic binding analysis by biolayer interferometry
Protocol: The Octet Red96 system (Forte Bio, Pall) was used to determine the binding between compound C620-0696 and BPTF. BPTF protein was loaded to saturation onto anti-His capture sensors (ForteBio), then was placed for 2 min in wells containing C620-0696 (concentrations: 3.125, 6.25, 12.5, 25, 50, 100, 200 μM). The baseline and dissociation steps were carried out in the kinetics buffer as per the instrument manufacturer's recommendations. Kinetic binding data in all cases were adequately described accurately by a 1:1 binding model.
FIG. 2A is a graph 200 showing the binding affinity of the bromodomain of BPTF with compound C620-0696 by Biolayer interferometry assay (BLI). BLI is a label-free technology for measuring biomolecular interactions. The bromodomain was immobilized on the streptavidin (SA) biosensors, and then mixed with different concentration of compound C620-0696 at 3.125, 6.25, 12.5, 25, 50, 100, 200 μM.

PARP1 = assay: Western blot analysis, cleaved PARP1; format: cell-based; conditions: H358 cells, 9 μM, 24 hr
Protocol: as §1, §2

c-MYC = assay: Western blot analysis, c-MYC; format: cell-based; conditions: H358 cells, 3, 6, 9 μM, 24 hr
Protocol: as §1, §2

- IC50 (A549 cells [2]): 11.2 µM
- IC50 (H358 cells): 6.72 µM
- Koff (bromodomain of BPTF; 1:1 binding model): 1.70×10^−2 S^−1
- Kd (bromodomain of BPTF; 3.125-200 μM, steady-state analysis, read-out: binding affinity KD): 35.5 µM
SMILES: CN(C)CCCNc1cc(NCc2ccco2)c2noc3c2c1C(=O)c1ccccc1-3 [compound C620-0696]
- expression of cyclin D1 (Cyclin D1): reduced the expression of cyclin D1
- cell migration (wound healing) (A549 cells [1]): migrated more slowly
- colony formation (A549 cells [3]): significant loss of colony formation
- levels of cleaved PARP1 (PARP1): significantly increased
- expression of c-MYC (c-MYC): suppressed the expression
